{"source": "patent US12358922B1", "about": "“Berberine alpha-ketoglutarate salt, crystalline form, methods of preparation and applications thereof” (priority 2024, dated 2025)", "key": {"[1]": {"conditions": "cited from earlier work"}, "[2]": {"assay": "Solubility measurement of berberine salts in water (Example 3)", "conditions": "room temperature (about 20° C.)"}}}
{"molecule": "COc1ccc2cc3[n+](cc2c1OC)CCc1cc2c(cc1-3)OCO2", "note": "[berberine chloride, berberine chloride dihydrate]", "values": [{"measurement": "loss of water", "setting": "[1]; elevated temperature or low humidity environment", "value": "more than 8%"}, {"measurement": "uptake of water", "setting": "[1]; in water or a high humidity environment, converts to tetrahydrate form", "value": "about 8%"}]}
{"molecule": "berberine hemi-sulfate", "values": [{"measurement": "solubility in water at room temperature", "setting": "[2]", "value": "> 20", "unit": "mg/mL"}]}
